This passage reports EC50, IC50 and outcome results from PubChem BioAssay AID179 (DTP/NCI, 2004).

The subject of the experiment is CEM cells HIV-1 protection, formazan growth assay. The experiment in a line: NCI AIDS Antiviral Assay. As to conditions: for IC50: measured here: growth of uninfected CEM cells. The method in brief:
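Screen of anti-HIV-1 activity in human CEM cells using a formazan-based growth measurement at five drug concentrations. Hits with 50% or greater protection were repeated, and confirmation required reproducible complete protection.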

Calls of active or inactive are those of the source.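 The calls were made as follows: active = compounds giving half or more protection of infected cells from virus-caused growth loss, again on retest; inactive = the rest.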

With `CC(=O)Oc1c(-c2ccccc2)[nH]c2cc([N+](=O)[O-])c(/C(Cl)=C/c3ccccc3)cc12`, the EC50 is above 6.31 µM and the IC50 is above 6.31 µM.
`COc1ccccc1C1c2cc3c(cc2OC(O)(CO)C1C(=O)O)OCO3` (stereo not given) (tested in a mixture with another compound): the outcome was inactive.
On to `N#CC(=N)c1ncn(-c2ccccc2N)c1N`, for which the EC50 was above 200 µM and the half-maximal inhibitory concentration (IC50) is above 200 µM.
For `Oc1ccc2ccccc2c1CNCc1c(O)ccc2ccccc12`, the EC50 was above 21.9 µM and the IC50 was above 21.9 µM.
Take `C=C(Cc1ccc2c(c1)OCO2)C(=C)Cc1ccc(O)cc1O`: the EC50 was above 200 µM and the half-inhibitory concentration (IC50) came to 55 µM.
With `CN1OC(C#N)(C#N)C(C#N)(C#N)C1c1ccccc1` (stereo not given), the EC50 was above 200 µM and the 50% inhibitory concentration (IC50) was above 200 µM.
Take `c1cc[c]([Sn]([S]c2cccc3cccnc23)([S]c2cccc3cccnc23)[c]2ccccc2)cc1`: the result was inactive.
As to `Cc1ccc([Si](O)(c2ccc(C)cc2)c2ccc(C)cc2)cc1`, the EC50 was above 200 µM and the concentration for half-maximal inhibition (IC50) stood at 12 µM.
The like results for `OCn1nc2c(C3OCCO3)cc3ccccc3n2c1=S` were, in that order, above 117 µM and 61.7 µM.
In the case of `COc1ccc2nc(-c3ccccc3)cc(N=[N+]=[N-])c2c1`, the outcome was inactive.
In the case of `Cc1cc(Br)cc(C)c1NC(=O)C(=O)C(C(=O)c1ccc2ccccc2c1)C1OC(=O)c2ccccc21` (stereo not given), the EC50 was above 64.6 µM and the IC50 came out at 12.9 µM.
The like results for `Nc1c(C(=O)O)[nH]c(=O)[nH]c1=S` were, in that order, above 200 µM and 95.5 µM.
Regarding `CC(C)(C)OC(=O)C1C(=O)C(C(=O)OC(C)(C)C)C23CCCCC12C(C(=O)OC(C)(C)C)C(=O)C3C(=O)OC(C)(C)C` (stereo not given), the EC50 was above 30.2 µM and the half-inhibitory concentration (IC50) is above 30.2 µM.
Regarding `CCOC(=O)C(O)(NC(C)=O)C(F)(F)F` (stereo not given), the EC50 is above 200 µM and the IC50 was above 200 µM.
In the case of `O=c1oc2ccc(O)cc2c2ccccc12`, the EC50 is above 170 µM and the concentration for half-maximal inhibition (IC50) was determined as 38 µM.
Regarding `C=C(C)[C@@H]1CC[C@]2(C(=O)OC)CC[C@]3(C)[C@H](CC[C@@H]4[C@@]5(C)CC[C@H](O)C(C)(C)[C@@H]5CC[C@]43C)[C@@H]12`, the outcome was inactive.
`COc1ccc(/C=N/Nc2nc(C)c(C)s2)cc1`: the EC50 is above 100 µM and the IC50 was above 100 µM.
Turning to `CSc1cnn(CCC#N)c(=O)n1`, the EC50 is above 200 µM and the IC50 was determined as 36.3 µM.
On to `Cn1nc(-c2ccc(Cl)c(Cl)c2)[n+]([O-])c2c(=O)n(C)c(=O)nc1-2`, for which the EC50 was above 200 µM and the half-maximal inhibitory concentration (IC50) is 1.38 µM.
As for `N=C(N)N=Nc1cc(O)c(NN=C(N)N)cc1O`, the EC50 is above 200 µM and the IC50 is 110 µM.
With `Cn1c(=O)nc2n(-c3ccc(Br)cc3)c3ccccc3nc-2c1=O`, the outcome was inactive.
As for `COC(=O)C1=Nc2c(C)nn(-c3ccccc3)c2N=C(c2ccc([N+](=O)[O-])cc2)C1`, the EC50 is above 200 µM and the IC50 is above 200 µM.
Consider `Cc1ccc(C(=O)OCC(C)C)cc1N=NN(C)C`, for which the EC50 was above 27.5 µM and the IC50 was above 27.5 µM.
`O=C(/C=C\c1ccc(Cl)c(Cl)c1)c1ccccc1`: the EC50 is above 200 µM and the 50% inhibitory concentration (IC50) was 10 µM.
The like results for `N#CC=Cc1ccc([N+](=O)[O-])s1` (mixture of isomers) were, in that order, above 2 µM and 0.166 µM.
The like results for `O=C1Nc2ccc(Cl)c(I)c2C1=O` were, in that order, above 61.7 µM and 35.5 µM.
As to `OCn1nnc2ccccc21`, the outcome was inactive.
For the compound `Cc1cc(O)c(/C=N/C(=S)NCCc2ccccc2)c(=O)o1`, the EC50 was above 200 µM and the IC50 is above 200 µM.
As for `COc1ccc(-n2c(N)c(C#N)[nH]c2=O)cc1`, the EC50 is above 200 µM and the concentration for half-maximal inhibition (IC50) is above 200 µM.
Consider `CCCC1=C(OC)C(=O)c2c(C)cc(Cl)nc2C1=O`, for which the EC50 was above 200 µM and the IC50 is 4.07 µM.
As for `O=C1C(/C=C/c2ccc(Cl)cc2)=NNC2N1N=C1NC(=O)C3(NN12)c1ccccc1-c1ccccc13` (stereo not given), the EC50 is above 200 µM and the IC50 stood at 132 µM.
On to `CCOC12OC3=C(CC1CC1=C(CCC1=O)O2)C(=O)CC3` (stereo not given), for which the outcome was inactive.
Turning to `C/C(=N/NC(=O)c1ccncc1)c1ccc(NC(=O)C(=O)Nn2c(=S)[nH]c3ccccc3c2=O)cc1`, the EC50 was above 51.3 µM and the IC50 is above 51.3 µM.
On to `COc1ccc(/C=C(/C#N)c2ccccc2)cc1`, for which the EC50 was above 200 µM and the half-maximal inhibitory concentration (IC50) was 2.09 µM.
In the case of `Cc1cn(C2CC(N(O)Cc3ccccc3)C(CO)O2)c(=O)[nH]c1=O` (stereo not given), the EC50 is above 200 µM and the IC50 was above 200 µM.
In the case of `CCOC(=O)/C(=C\c1ccc(F)cc1)P(=O)(OCC)OCC`, the EC50 is above 759 µM and the IC50 is 15.1 µM.
Consider `OC1C2CCCC1C1(CCCCC1)C1CCCCC21O` (stereo not given), for which the result was inactive.
In the case of `CC(C)c1ccc(/C(C(=O)O)=C(\O)C(=O)O)cc1`, the EC50 is above 200 µM and the 50% inhibitory concentration (IC50) came out at 107 µM.
For `CCNCC(O)COc1ccc2c(c1)[n+]([O-])nc(N)[n+]2[O-]` (stereo not given) the same measures were above 200 µM and 13.8 µM.
For `C/C=C(\C)C(=O)N1c2ccccc2CC1c1c(C)[nH]c2ccccc12` (stereo not given) the same measures were above 21.9 µM and 6.92 µM.
The like results for `C=C(CCC(Cl)C(COS(=O)(=O)c1ccc(C)cc1)OC(CCCO[Si](c1ccccc1)(c1ccccc1)C(C)(C)C)OCC)[Si](C)(C)C` (stereo not given) were, in that order, above 5.01 µM and above 5.01 µM.
Regarding `CCOc1ccc(/C(Cl)=C(\C=O)c2ccc(OC)c(OC)c2)cc1OCC`, the EC50 is above 25.7 µM and the IC50 came to 14.1 µM.
As for `CN(C)CC1CCC(CN(C)C)C(=O)C1=O` (stereo not given), the EC50 was above 200 µM and the concentration for half-maximal inhibition (IC50) came to 0.49 µM.
The like results for `COc1ccc(CC2NC(=O)C3CCCN3C2=O)cc1` (stereo not given) were, in that order, above 200 µM and above 200 µM.
On to `NNC1=Cn2c(nc3ccccc32)NN1`, for which the outcome was inactive.
For `C[C@@H]1C[C@@H](O)[C@@]2(O)C13CC(=O)OC(C3)[C@@H](C)[C@@]2(C)CO` (stereo not given in full), the EC50 was above 200 µM and the IC50 was above 200 µM.
In the case of `C[C@@]1(OC(=O)c2cc([N+](=O)[O-])cc([N+](=O)[O-])c2)C[C@@H]2CCCC[C@@H]21`, the outcome was inactive.
For the compound `CC(=O)N1N=C(c2ccc3ccccc3c2O)CC1C(=O)c1ccco1` (stereo not given), the EC50 is above 200 µM and the IC50 was 23.4 µM.
The like results for `COc1ccc2c(c[n+](C)c3c4cc5c(cc4ccc23)OCO5)c1OC` were, in that order, above 3.24 µM and 0.372 µM.
The like results for `O=C1COc2ccc(F)cc2N1` were, in that order, above 380 µM and above 380 µM.
For `COCCOCC(=O)N(CCn1ccc(NC(c2ccccc2)(c2ccccc2)c2ccccc2)nc1=O)CCn1cnc2nc(N)[nH]c(=O)c21` the same measures were 28.8 µM and 60.3 µM.
In the case of `COc1nc(NC2OCC(OC(C)=O)C(OC(C)=O)C2OC(C)=O)c(-c2csc(N)n2)c(=O)n1C` (stereo not given), the result was inactive.
For the compound `O=C(Nc1sccc1S(=O)(=O)c1ccccc1)c1cccnc1`, the EC50 is above 200 µM and the IC50 was 4.47 µM.

In general, EC50 refers to the concentration giving half of the maximal effect. By IC50 is commonly meant the concentration at which inhibition is half-maximal. Read a low IC50 as greater potency in that assay.
